Test results: patent US10487045B2, “Adamantane derivative and use thereof” (TOHOKU UNIVERSITY, priority 2016, dated 2019)

Target: T1, Kir6.2 channel (Mus musculus, UniProt Q61743)
T1 construct: expressed in transfected cells; host or cells: Neuro2A (N2A) cells, transient transfection with pcDNA3.1-Kir6.2 (gift of Dr. Toru Ishizuka, Tohoku University)
T1 sequence (Q61743 1-390): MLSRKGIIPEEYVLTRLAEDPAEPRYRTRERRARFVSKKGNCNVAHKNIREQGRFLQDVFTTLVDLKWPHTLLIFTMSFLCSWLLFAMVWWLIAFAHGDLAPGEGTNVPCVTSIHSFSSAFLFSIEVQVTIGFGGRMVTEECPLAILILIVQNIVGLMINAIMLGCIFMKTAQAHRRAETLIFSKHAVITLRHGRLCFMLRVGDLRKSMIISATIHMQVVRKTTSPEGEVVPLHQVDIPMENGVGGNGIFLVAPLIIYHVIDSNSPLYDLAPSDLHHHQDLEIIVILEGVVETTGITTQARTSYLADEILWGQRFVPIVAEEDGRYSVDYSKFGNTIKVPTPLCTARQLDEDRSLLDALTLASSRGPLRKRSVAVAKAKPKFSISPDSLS
Experiment: CaMKII activation in N2A cells overexpressing Kir6.2 channel (immunoblotting, anti-phosphorylated CaMKII antibody)
Type: cell-based
Conditions: 10 nM, one hour, Kir6.2 channel overexpressing N2A cells; control without compound = 100%
Method: A plasmid vector having cDNA of Kir6.2 channel inserted therein: pcDNA3.1-Kir6.2, was obtained from Dr. Toru Ishizuka (Graduate School of Life Sciences, Tohoku University). The plasmid vector, pcDNA3.1-Kir6.2, was conditioned in accordance with the manual attached to GenElute HP Plasmid Maxiprep Kit (manufactured by Sigma-Aldrich). A culture solution (composition: DMEM culture solution 450 mL containing 50 ml of bovine serum and 100 units of penicillin/streptomycin) of Neuro2A cells (N2A cells, the National Instituted of Biomedical Innovation) cultured in DMEM culture solution (Gibco) was exchanged with Opti-Mem (Gibco)(containing Lipofectamine R2000 (1 μg/1 ml)) containing pcDNA3.1-Kir6.2 (1 μg/μl) conditioned above, and cultured for 5 hours to obtain N2A cells overexpressing Kir6.2 channel. Exchange with the DMEM culture solution was again performed and culture was carried out for two days. Thereafter, memantine (manufactured by Sigma-Aldrich) and the compound of the present invention (n=4 per group) were added in the culture solutions (DMEM, Gibco) so as to obtain a concentration of 10 nM based on the culture solution, and the culture solutions were allowed to stand still for one hour. Thereafter, Kir6.2 channel overexpressing N2A cells were collected and an SDS sample buffer was added to the N2A cells to prepare a suspension. The suspension was subjected to immunoblotting by use of an anti-phosphorylated CaMKII antibody (Fukunaga K et al., J. Biol. Chem. 1992, 267, 22527-22533) as a primary antibody and an anti-rabbit IgG antibody (manufactured by SouthernBiotech) as a secondary antibody (other conditions except the aforementioned antibodies were the same as those employed in ordinary immunoblotting), to investigate activation of CaMKII. As a result, in TP-009, TP-010, TP-011, TP-012, TP-014, TP-015, TP-048, TP-049, TP-050, TP-051, TP-052, TP-053, bands showing a reaction with the antibody against phosphorylated CaMKII were obtained. It was confirmed that activation of CaMKII is enhanced. In FIG. 1, the result of the case (control: c) where a test compound was not added is regarded as 100%. CaMKII activation of the cases containing memantine, TP-009, TP-010, TP-011, TP-012, TP-014, TP-015, TP-048, TP-049, TP-050, TP-051, TP-052, TP-053 (corresponding to M, 9, 10, 11, […], 15, 48, 49, 50, 51, 52 and 53, respectively) were shown in FIG. 1.

| SMILES | activation of CaMKII (phosphorylated CaMKII bands) |
| --- | --- |
| CC(=O)O[C@@H](c1ccccc1)[C@@H]1[C@@H]2C[C@H]3C[C@@](N=[N+]=[N-])(C2)C[C@]1(O)C3 [TP-009, (R)-((1R,2S,3R,5R,7S)-5-azido-1-hydroxyadamantan-2-yl)(phenyl)methyl acetate] | enhanced |
| N[C@H](C(=O)O)[C@@H]1[C@@H]2C[C@H]3C[C@@](O)(C2)C[C@]1(O)C3 [TP-015, (S)-2-amino-2-((1R,2S,3R,5R,7S)-1,5-dihydroxyadamantan-2-yl)acetic acid] | enhanced |
| COCCO[C@@]12C[C@H]3C[C@@H](C1)[C@H]([C@@H](NC(=O)C(F)(F)F)c1ccccc1)[C@](OC(=O)C(F)(F)F)(C3)C2 [TP-050, (1S,2R,3S,5S,7R)-5-(2-methoxyethoxy)-2-((R)-phenyl(2,2,2-trifluoroacetamido)methyl)adamantan-1-yl 2,2,2-trifluoroacetate] | enhanced |
| O=C(N[C@@H](c1ccccc1)[C@H]1[C@@H]2C[C@H]3C[C@@H](C2)C[C@]1(OC(=O)C(F)(F)F)C3)C(F)(F)F [TP-049, (1S,2R,3S,5R,7S)-2-((R)-phenyl(2,2,2-trifluoroacetamido)methyl)adamantan-1-yl 2,2,2-trifluoroacetate] | enhanced |
| O=C(N[C@@H](c1ccccc1)[C@H]1[C@H]2C[C@@H]3C[C@](Cl)(C2)C[C@@]1(O)C3)C(F)(F)F [TP-048, N—((R)-((1S,2R,3S,5S,7S)-5-chloro-1-hydroxyadamantan-2-yl)(phenyl)methyl)-2,2,2-trifluoroacetamide] | enhanced |
| CCOC(=O)[C@H](NC(C)=O)[C@@H]1[C@@H]2C[C@H]3C[C@@](Cl)(C2)C[C@]1(O)C3 [TP-011, ethyl (R)-2-acetamido-2-((1R,2S,3R,5R,7R)-5-chloro-1-hydroxyadamantan-2-yl)acetate] | enhanced |
| O=C(N[C@@H](c1ccccc1)[C@H]1[C@@H]2C[C@H]3C[C@@H](C2)C[C@]1(O)C3)C(F)(F)F [TP-052, 2,2,2-trifluoro-N—((R)—((S,2R,3S,5R,7S)-1-hydroxyadamantan-2-yl)(phenyl)methyl) acetamide] | enhanced |

The next lines start with the values.

| activation of CaMKII (phosphorylated CaMKII bands) | SMILES |
| --- | --- |
| enhanced | CCOC(=O)[C@@H](NC(C)=O)[C@@H]1[C@@H]2C[C@H]3C[C@@](Cl)(C2)C[C@]1(O)C3 [TP-010, ethyl (S)-2-acetamido-2-((1R,2S,3R,5R,7R)-5-chloro-1-hydroxyadamantan-2-yl)acetate] |
| enhanced | CO[C@@]12C[C@H]3C[C@@H](C1)[C@H]([C@@H](NC(=O)C(F)(F)F)c1ccccc1)[C@](OC(=O)C(F)(F)F)(C3)C2 [TP-053, (1S,2R,3S,5S,7R)-5-methoxy-2-((R)-phenyl(2,2,2-trifluoroacetamido)methyl)adamantan-1-yl 2,2,2-trifluoroacetate] |
| enhanced | COC(=O)[C@@H](NC(=O)C(F)(F)F)[C@@H]1[C@@H]2C[C@H]3C[C@@](Cl)(C2)C[C@]1(OC(=O)C(F)(F)F)C3 [TP-012, (1R,2S,3R,5R,7R)-5-chloro-2-((S)-2-methoxy-2-oxo-1-(2,2,2-trifluoroacetamido)ethyl)adamantan-1-yl 2,2,2-trifluoroacetate] |
| enhanced | O=C(N[C@@H](c1cccnc1)[C@H]1[C@H]2C[C@@H]3C[C@](Cl)(C2)C[C@@]1(O)C3)C(F)(F)F [TP-051, N—((R)-((1S,2R,3S,5S,7S)-5-chloro-1-hydroxyadamantan-2-yl)(pyridin-3-yl)methyl)-2,2,2-trifluoroacetamide] |
